Test results: patent US5330743A, “Aminosaccharide contrast agents for magnetic resonance images” (Magnetic Research, Inc., priority 1992, dated 1994)
Read-outs that look alike come from different tables or passages of the source.

How the values were obtained:
[1] = MR contrast enhancement of muscle in rabbits (T1W spin echo, 1.5 Tesla); assay type: in vivo, New Zealand White rabbits; conditions: 0.1 mM/kg intravenously
Excerpt: (§1) TR=750 msec. TE=37 msec. NEX=4. Flow compensation was used.

[2] = MR contrast enhancement of kidney in rabbits (T1W spin echo, 1.5 Tesla); assay type: in vivo, New Zealand White rabbits; conditions: 0.1 mM/kg intravenously; for time at which contrast enhancement of kidney was well demonstrated: after contrast injection
Excerpt: as §1

[3] = for time at which contrast enhancement of liver was well demonstrated: after contrast injection
Description: New Zealand White rabbits were used for all magnetic resonance imaging (MRI) experiments. A General Electric 1.5 Tesla system was used with the knee coil. T1W spin echo images were obtained every 10 minutes following contrast injection. Data points were taken as the time at the end of the scan. Each data point was measured in triplicate with sample signal intensities taken from the liver, kidney, and muscle. TR=750 msec. TE=37 msec. NEX=4. Flow compensation was used. Sedation was performed by using an initial injection of intramuscular ketamine at 110 mg/kg and pentobarbital intravenously at 2.2 cc/kg. Sedation was maintained with intermittent pentobarbital injections as needed at 1 cc/kg.
Two rabbits were given gadolinium DTPA bis-glucosamide at 0.1 mM/kg intravenously. MR images were taken before and after the injection of the contrast agent.
MR images were taken before and after the injection of contrast agent.
Gadolinium DTPA bis-pyriodoxamide was given intravenously at 0.1 mM/kg. MR images were taken before and after the injection of contrast agent.
Comparison is made with two animals which were given Gd DTPA (Schering A. G., Berlin, Germany) 0.1 mM/kg intravenously.

[4] = 11 min. P.I., 0.1 mM/kg intravenously
[5] = 21 min. P.I., 0.1 mM/kg intravenously
[6] = 31 min. P.I., 0.1 mM/kg intravenously
[7] = 44 min. P.I., 0.1 mM/kg intravenously
[8] = 54 min. P.I., 0.1 mM/kg intravenously
[9] = 64 min. P.I., 0.1 mM/kg intravenously
[10] = 76 min. P.I., 0.1 mM/kg intravenously
[11] = Pre-Contrast, 0.1 mM/kg intravenously
[12] = 85 min. P.I., 0.1 mM/kg intravenously

SMILES | contrast enhancement, muscle composite (av of 3) ([1]; 11 min. P.I.) | contrast enhancement, muscle composite (av of 3) ([1]; 21 min. P.I.) | contrast enhancement, muscle composite (av of 3) ([1]; 31 min. P.I.) | contrast enhancement, muscle composite (av of 3) ([1]; 44 min. P.I.) | contrast enhancement, muscle composite (av of 3) ([1]; 54 min. P.I.) | contrast enhancement, muscle composite (av of 3) ([1]; 64 min. P.I.) | contrast enhancement, muscle composite (av of 3) ([1]; 76 min. P.I.) | contrast enhancement, muscle composite (av of 3) ([1]; Pre-Contrast) | time at which contrast enhancement of kidney was well demonstrated [2] | contrast enhancement, kidney composite (av of 3) ([2]; 11 min. P.I.) | contrast enhancement, kidney composite (av of 3) ([2]; 21 min. P.I.) | contrast enhancement, kidney composite (av of 3) ([2]; 31 min. P.I.) | contrast enhancement, kidney composite (av of 3) ([2]; 44 min. P.I.) | contrast enhancement, kidney composite (av of 3) ([2]; 54 min. P.I.) | contrast enhancement, kidney composite (av of 3) ([2]; 64 min. P.I.) | contrast enhancement, kidney composite (av of 3) ([2]; Pre-Contrast) | contrast enhancement, liver composite (av of 3) [3, 4] | contrast enhancement, liver composite (av of 3) [3, 5] | contrast enhancement, liver composite (av of 3) [3, 6] | contrast enhancement, liver composite (av of 3) [3, 11] | also measured
O=C([O-])CN(CCN(CC(=O)[O-])CC(=O)N[C@H]1C(O)O[C@H](CO)[C@@H](O)[C@@H]1O)CCN(CC(=O)[O-])CC(=O)N[C@H]1C(O)O[C@H](CO)[C@@H](O)[C@@H]1O.[Gd+3] (stereo partly shown) [Gd DTPA Bis-Glucosamide, gadolinium DTPA bis-glucosamide] | 3.791% | -3.481% | -2.205% | -6.098% | -7.962% | -11.035% | -5.465% | 0.000% | 11 min | 77.532% | 68.552% | 46.320% | 42.172% | 31.288% | 30.596% | 0.000% | 17.157% | 14.172% | 11.053% | 0.000% | course of contrast enhancement after maximum, kidney [2]: decreased gradually; enhancement of the kidney compared to Gd DTPA [2]: improved enhancement; time until which maximum contrast enhancement was maintained, kidney [2]: 22 min; contrast enhancement, kidney composite (av of 3) ([2]; 76 min. P.I.): 22.065%; course of contrast enhancement after maximum, liver ([3]; 0.1 mM/kg intravenously): decreased gradually; decrease in contrast, liver versus kidney ([3]; 0.1 mM/kg intravenously): slower in the liver than in the kidney; enhancement of the liver compared to Gd DTPA ([3]; 0.1 mM/kg intravenously): improved enhancement; time until which maximum contrast enhancement was maintained, liver ([3]; 0.1 mM/kg intravenously): 22 min; time at which contrast enhancement of liver was well demonstrated ([3]; 0.1 mM/kg intravenously): 11 min; contrast enhancement, liver composite (av of 3) [3, 7]: 7.390%; contrast enhancement, liver composite (av of 3) [3, 8]: 9.910%; contrast enhancement, liver composite (av of 3) [3, 9]: 3.151%; contrast enhancement, liver composite (av of 3) [3, 10]: 1.750%
O=C([O-])CN(CCN(CC(=O)[O-])CC(=O)[O-])CCN(CC(=O)[O-])CC(=O)[O-].[Gd+3] [Gd DTPA, gadolinium diethylene triamine pentaacetic acid complex, reference compound] | 12.981% | 6.801% | 2.020% | -1.543% | -0.464% | -0.873% | -2.407% | 0.000% |  | 52.456% | 40.275% | 28.971% | 29.243% | 28.405% | 27.052% | 0.000% | 4.822% | 0.852% | 6.132% | 0.000% | contrast enhancement, muscle composite (av of 3) ([1]; 85 min. P.I.): -0.899%; contrast enhancement, kidney composite (av of 3) ([2]; 76 min. P.I.): 23.751%; contrast enhancement, kidney composite (av of 3) ([2]; 85 min. P.I.): 14.643%; contrast enhancement, liver composite (av of 3) [3, 7]: -2.041%; contrast enhancement, liver composite (av of 3) [3, 8]: -2.714%; contrast enhancement, liver composite (av of 3) [3, 9]: -1.063%; contrast enhancement, liver composite (av of 3) [3, 10]: -0.232%; contrast enhancement, liver composite (av of 3) [3, 12]: -0.422%
Cc1ncc(CO)c(CNC(=O)CN(CCN(CCN(CC(=O)[O-])CC(=O)NCc2c(CO)cnc(C)c2O)CC(=O)[O-])CC(=O)[O-])c1O.[Gd+3] [Gd DTPA Bis-Pyridoxamide, Gadolinium DTPA bis-pyriodoxamide] | 7.089% | 6.846% | -12.884% |  |  |  |  | 0.000% | 11 min | 72.341% | 50.381% | 53.753% |  |  |  | 0.000% | -4.567% | -4.805% | -3.018% | 0.000% | enhancement of the kidney compared to Gd DTPA [2]: improved renal enhancement; time of maximum contrast enhancement, kidney [2]: 11 min; liver enhancement (in words) ([3]; 0.1 mM/kg intravenously): negative liver enhancement
O=C([O-])CN(CCN(CC(=O)[O-])CC(=O)N[C@H]1C(O)O[C@H](CO)[C@H](O)[C@@H]1O)CCN(CC(=O)[O-])CC(=O)N[C@H]1C(O)O[C@H](CO)[C@H](O)[C@@H]1O.[Gd+3] (stereo partly shown) [Gd DTPA Galactosamide, gadolinium DTPA galactosamide] | 18.349% | 24.593% | 12.578% | 7.783% | 14.531% | 12.252% | -10.121% | 0.000% | 11 min | 52.932% | 47.999% | 46.968% | 41.697% | 41.936% | 42.336% | 0.000% | 21.943% | 13.116% | 15.632% | 0.000% | enhancement of the muscle compared to Gd DTPA [1]: improved enhancement; contrast enhancement, muscle composite (av of 3) ([1]; 85 min. P.I.): -3.078%; course of contrast enhancement after maximum, kidney [2]: decreased very slowly; time of maximum contrast enhancement, kidney [2]: 22 min; contrast enhancement, kidney composite (av of 3) ([2]; 76 min. P.I.): 37.335%; contrast enhancement, kidney composite (av of 3) ([2]; 85 min. P.I.): 26.562%; course of contrast enhancement after maximum, liver ([3]; 0.1 mM/kg intravenously): decreased rapidly; enhancement of the liver compared to Gd DTPA ([3]; 0.1 mM/kg intravenously): improved enhancement; time of maximum contrast enhancement, liver ([3]; 0.1 mM/kg intravenously): 11 min; time at which contrast enhancement of liver was well demonstrated ([3]; 0.1 mM/kg intravenously): 11 min; contrast enhancement, liver composite (av of 3) [3, 7]: 11.724%; contrast enhancement, liver composite (av of 3) [3, 8]: 13.202%; contrast enhancement, liver composite (av of 3) [3, 9]: 8.360%; contrast enhancement, liver composite (av of 3) [3, 10]: 11.639%; contrast enhancement, liver composite (av of 3) [3, 12]: 15.451%; time at which contrast agent appears to have been cleared from the liver ([3]; rabbit, in vivo, iv): 76 min
